This passage reports relative viability results from the supplement of paper PMC10307832.

Holding throughout (assay): relative viability (nuclei count vs DMSO), 5 days (fraction); higher = more cells survive
Compound in assay [1]: CCn1c(-c2nonc2N)nc2cnc(Oc3cccc(NC(=O)c4ccc(OCCN5CCOCC5)cc4)c3)cc21 + CC(C)C[C@H](NC(=O)[C@H](Cc1ccccc1)NC(=O)c1cnccn1)B(O)O [Bortezomib] (partner 0.002 µM)
The method, boiled down:
(§1)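 Relative viability was taken as the ratio of nuclei in treated wells to nuclei in vehicle wells. Lung cancer cell lines in 1536-well plates received compounds by pin tool one day after seeding, either one drug alone or a fixed anchor-drug dose plus five library-drug doses (not always all listed) in √10 steps. Nuclei were counted on 4× images after 5 days of treatment, and values are medians of duplicate plates.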

Compound in assay [2]: CCC1=CN=CN=C1N2CCN(CC2)CC3=NC4=C(N3)C=C(C=C4)C(F)(F)F + CC(=O)c1c(C)c2cnc(Nc3ccc(N4CCNCC4)cn3)nc2n(C2CCCC2)c1=O [Palbociclib] (partner 0.5 µM)
The method, boiled down:
as §1

Compound in assay [3]: CCn1c(-c2nonc2N)nc2cnc(Oc3cccc(NC(=O)c4ccc(OCCN5CCOCC5)cc4)c3)cc21 + COc1cc2c(Oc3ccc(NC(=O)C4(C(=O)Nc5ccc(F)cc5)CC4)cc3F)ccnc2cc1OCCCN1CCOCC1 [Foretinib] (partner 0.25 µM)
The method, boiled down: as §1

Compound in assay [4]: CCn1c(-c2nonc2N)nc2cnc(Oc3cccc(NC(=O)c4ccc(OCCN5CCOCC5)cc4)c3)cc21 + CS(=O)(=O)CCNCc1ccc(-c2ccc3ncnc(Nc4ccc(OCc5cccc(F)c5)c(Cl)c4)c3c2)o1 [Lapatinib] (partner 2 µM)
The method in brief:
as §1

With NCI-H3122, the relative viability in assay [1] (first compound 0.04 µM) was 1.05; in assay [1] (first compound 0.1265 µM) it was 1.01; in assay [1] (first compound 0.4 µM) it was 0.93; in assay [1] (first compound 1.265 µM), 0.691; in assay [1] (first compound 4 µM), 0.738; in assay [2] (first compound 0.04 µM) it was 0.176. In addition, the relative viability is 0.226 in assay [2] (first compound 0.1265 µM); 0.207 in assay [2] (first compound 0.4 µM); 0.172 in assay [2] (first compound 1.265 µM); 0.172 in assay [2] (first compound 4 µM); 1.06 in assay [3] (first compound 0.04 µM); 0.969 in assay [3] (first compound 0.1265 µM). Moreover, the relative viability was 0.935 in assay [3] (first compound 0.4 µM); 0.972 in assay [3] (first compound 1.265 µM); 0.832 in assay [3] (first compound 4 µM); 1.1 in assay [4] (first compound 0.04 µM); 1.04 in assay [4] (first compound 0.1265 µM); 0.891 in assay [4] (first compound 0.4 µM). Moreover, the figures for the relative viability in assay [4] (first compound 1.265 µM) and in assay [4] (first compound 4 µM) were 0.804 and 0.691, respectively.

As to PC-3 [JPC-3], the relative viability in assay [1] (first compound 0.04 µM) turned out to be 0.958; in assay [1] (first compound 0.1265 µM) it was 0.867; in assay [1] (first compound 0.4 µM), 0.727; in assay [1] (first compound 1.265 µM), 0.772; in assay [1] (first compound 4 µM) it was 0.63; in assay [2] (first compound 0.1265 µM), 0.53. Moreover, the relative viability in assay [2] (first compound 0.4 µM) was 0.56; in assay [2] (first compound 1.265 µM) it was 0.565; in assay [2] (first compound 4 µM), 0.543; in assay [3] (first compound 0.04 µM) it was 1.06; in assay [3] (first compound 0.1265 µM) it was 1.08; in assay [3] (first compound 0.4 µM), 1.11. For the same cell line, the relative viability in assay [3] (first compound 1.265 µM) is 1.01; in assay [3] (first compound 4 µM) it was 0.942; in assay [4] (first compound 0.04 µM) it was 0.527; in assay [4] (first compound 0.1265 µM) it was 0.499; in assay [4] (first compound 0.4 µM), 0.438; in assay [4] (first compound 1.265 µM), 0.573. Further, the relative viability in assay [4] (first compound 4 µM) came to 0.522.

Consider PC-14, for which the relative viability came to 1.04 in assay [1] (first compound 0.04 µM); 0.857 in assay [1] (first compound 0.1265 µM); 0.905 in assay [1] (first compound 0.4 µM); 0.776 in assay [1] (first compound 1.265 µM); 0.729 in assay [1] (first compound 4 µM); 0.519 in assay [2] (first compound 0.04 µM). The relative viability is 0.518 in assay [2] (first compound 0.1265 µM); 0.548 in assay [2] (first compound 0.4 µM); 0.608 in assay [2] (first compound 1.265 µM); 0.506 in assay [2] (first compound 4 µM); 0.927 in assay [3] (first compound 0.04 µM); 0.84 in assay [3] (first compound 0.1265 µM). Further, the relative viability in assay [3] (first compound 0.4 µM) turned out to be 0.761; in assay [3] (first compound 1.265 µM), 0.718; in assay [3] (first compound 4 µM) it was 0.72; in assay [4] (first compound 0.04 µM) it was 0.343; in assay [4] (first compound 0.1265 µM), 0.227; in assay [4] (first compound 0.4 µM) it was 0.232. Besides, the relative viability in assay [4] (first compound 1.265 µM) came to 0.264; in assay [4] (first compound 4 µM), 0.283.

On to RERF-LC-KJ, for which the relative viability in assay [1] (first compound 0.04 µM) was 1.32; in assay [1] (first compound 0.1265 µM), 1.31; in assay [1] (first compound 0.4 µM) it was 1.01; in assay [1] (first compound 1.265 µM), 0.731; in assay [1] (first compound 4 µM) it was 0.754; in assay [2] (first compound 0.04 µM), 1.05. For the same cell line, the relative viability in assay [2] (first compound 0.1265 µM) is 1.06; in assay [2] (first compound 0.4 µM), 1.02; in assay [2] (first compound 1.265 µM), 0.971; in assay [2] (first compound 4 µM), 0.923; in assay [3] (first compound 0.04 µM), 1.02; in assay [3] (first compound 0.1265 µM), 0.829. Moreover, the relative viability in assay [3] (first compound 0.4 µM) was determined as 0.74; in assay [3] (first compound 1.265 µM), 0.532; in assay [3] (first compound 4 µM), 0.532; in assay [4] (first compound 0.04 µM), 0.933; in assay [4] (first compound 0.1265 µM), 0.827; in assay [4] (first compound 0.4 µM), 0.717. The relative viability worked out at 0.684 in assay [4] (first compound 1.265 µM) and 0.606 in assay [4] (first compound 4 µM).

For SK-LU-1, the relative viability in assay [1] (first compound 0.04 µM) came out at 1.5; in assay [1] (first compound 0.1265 µM), 0.921; in assay [1] (first compound 0.4 µM), 0.608; in assay [1] (first compound 4 µM), 0.504; in assay [2] (first compound 0.04 µM), 0.412; in assay [2] (first compound 0.1265 µM), 0.394. Also, the relative viability in assay [2] (first compound 0.4 µM) worked out at 0.41; in assay [2] (first compound 1.265 µM), 0.26; in assay [2] (first compound 4 µM), 0.418; in assay [3] (first compound 0.04 µM) it was 0.837; in assay [3] (first compound 0.1265 µM), 0.621; in assay [3] (first compound 0.4 µM) it was 0.587. Also, the relative viability came to 0.333 in assay [3] (first compound 1.265 µM); 0.318 in assay [3] (first compound 4 µM); 1.24 in assay [4] (first compound 0.04 µM); 0.662 in assay [4] (first compound 0.1265 µM); 0.611 in assay [4] (first compound 0.4 µM); 0.493 in assay [4] (first compound 1.265 µM). Further, in assay [4] (first compound 4 µM), the relative viability worked out at 0.449.

SW 1573: the relative viability is 0.984 in assay [1] (first compound 0.04 µM); 1.04 in assay [1] (first compound 0.1265 µM); 0.871 in assay [1] (first compound 0.4 µM); 0.575 in assay [1] (first compound 1.265 µM); 0.41 in assay [1] (first compound 4 µM); 0.345 in assay [2] (first compound 0.04 µM). Moreover, the relative viability in assay [2] (first compound 0.1265 µM) was found to be 0.406; in assay [2] (first compound 0.4 µM), 0.384; in assay [2] (first compound 1.265 µM), 0.262; in assay [2] (first compound 4 µM), 0.32; in assay [3] (first compound 0.04 µM), 1.1; in assay [3] (first compound 0.1265 µM), 0.926. Moreover, the relative viability was 0.527 in assay [3] (first compound 0.4 µM); 0.539 in assay [3] (first compound 1.265 µM); 0.354 in assay [3] (first compound 4 µM); 1.21 in assay [4] (first compound 0.04 µM); 0.904 in assay [4] (first compound 0.1265 µM); 0.685 in assay [4] (first compound 0.4 µM). Further, the relative viability in assay [4] (first compound 1.265 µM) was determined as 0.627; in assay [4] (first compound 4 µM) it was 0.353.
